Assay results: patent US20150125406A1, “TOPICAL SKIN CARE COMPOSITION” (JAFER LIMITED, priority 2012, published 2015)

What was measured:
Assay type in all cases: cell-based
B16 melanocytes [1] = assay: Cell numbers by sulforhodamine B method, Study I; details: 20X dilution of stock solutions; 48 hours incubation
Method: (§1) One set of aqueous stock solutions was prepared containing each component individually (as supplied) in an amount representing the active concentration present in a composition of Example 1-B (Compositions 6A-C in Table 9). A corresponding second and third set of stock solutions was prepared, respectively containing two-times (Compositions 6E-G in Table 9) and four-times (Compositions I-K in Table 9) the amount of the foregoing concentrations. Combinations of each component were prepared from the stock solutions of each component (Compositions. 6D, 6H, and 6L in Table 9) to provide amounts representing the weight ratio of each component to one another present (active basis) in a composition of Example 1-B as shown below in Notes 1-3 of Table 9. A 20-fold (20×) dilution (distilled water) of each stock solution was selected for the in vitro test to minimize or avoid cytotoxicity of melanocytes in the cell growth medium.
(§2) Cells (B16 melanocytes) were plated in phenol-free Dulbecco's Modified Eagle's Medium (DMEM) supplemented with 5% fetal bovine serum (FBS) at 10,000 cells/well. After 24 hours, test material was added and the cells were incubated with the test material for 48 hours. The melanin was quantified by instrumentally measuring absorbance with a BIORAD microplate spectrophotometer 3550-UV at 490 nanometers. Cultures were also photographed (CANON REBEL digital camera). Statistical significance of the values was calculated using paired t-test and threshold statistical significance was fixed at p=0.05 and 15% difference as compare to the water control group. Cell numbers were measured using a sulforhodamine B method (described by Skehan et al, “New colorimetric cytotoxicity assay for anticancer-drug screening”, J. Natl Cancer Inst., 82:1107, 1990, the relevant disclosures of which are incorporated herein by reference). The colorimetric signal proportional to cell numbers was acquired with the microplate spectrophotometer 3550-UV at 550 nanometers.

B16 melanocytes [2] = assay: Cell numbers by sulforhodamine B method, Study II; details: 20X dilution of dilute stock solutions; 72 hours
Method: as §2
Following the general procedure of Study I, a further set of dilute aqueous stock solutions was prepared containing each component individually (Compositions 6M-O in Table 10). A stock solution containing a combinations of each component was prepared from the stock solutions of each component (Composition 6P in Table 10) to provide amounts representing the weight ratio of each component to one another present in a composition of Example 1-B as shown below in Note 1 to Table 10. For comparison, a dilute stock solution of hydroquinone (Composition 6Q) was included. A 20-fold (20×) dilution (distilled water) of each stock solution was selected for the in vitro test to minimize or avoid cytotoxicity of melanocytes in the cell growth medium.
(§3) The methodology of Study I was repeated, except that the test was terminated after 72 hours for quantifying melanin pigmentation.

B16 melanocytes [3] = assay: Melanin production/secretion in melanocytes, Study I; details: 48 hours incubation; for effect on pigmentation / inhibition of melanin production/secretion: 20X dilution of stock solutions
Method: This example illustrates the synergistic efficacy of the combination of the complexion modifying components (a) 4-hexylresorcinol, (b) niacinamide and (c) 1-amino-ethylphosphinic acid, compared to the effect of the individual components, based on an in vitro evaluation of melanin production/secretion in melanocytes. Components (a), (b) and (c) were evaluated individually and in combination with one another as described below in Studies I and II, and in Tables 9 and 10.
as §1
Component (c) as supplied is described in Note (a) to Table 2. As a positive control, stock solutions of kojic acid solutions were prepared at an active concentration of 2%, 0.5% and 0.1% to provide a concentration of 0.1%, 0.025% and 0.005%, respectively, at a 20× dilution. Distilled water was used as the negative control.
as §2

B16 melanocytes [4] = assay: Melanin production/secretion in melanocytes, Study II; details: 20X dilution of dilute stock solutions; 72 hours
Method: as §2
Following the general procedure of Study I, a further set of dilute aqueous stock solutions was prepared containing each component individually (Compositions 6M-O in Table 10). […] For comparison, a dilute stock solution of hydroquinone (Composition 6Q) was included. A 20-fold (20×) dilution (distilled water) of each stock solution was selected for the in vitro test to minimize or avoid cytotoxicity of melanocytes in the cell growth medium.
Distilled water was used as the negative control. As a positive control for validating the test, a dilute stock solutions of kojic acid (0.2%, 0.04%) were prepared and a 20× dilution (0.01%, 0.002%) tested.
as §3

Row | SMILES | effect on cell numbers / cytotoxicity (B16 melanocytes [1]) | effect on cell numbers / cytotoxicity (B16 melanocytes [2]) | effect on pigmentation / inhibition of melanin production/secretion (B16 melanocytes [3]) | pigmentation expressed as % (water control 100%) (B16 melanocytes [3]; 20X dilution) | inhibition of melanin production/secretion (B16 melanocytes [4]) | inhibitory effect on pigmentation (B16 melanocytes [4])
1 | O=c1cc(CO)occ1O [kojic acid] | without significantly impacting cell proliferation | without significantly impacting cell proliferation | dose-dependent pigmentation-inhibitory effect | 70-90% | about 73% | 
2 | Oc1ccc(O)cc1 [hydroquinone] |  |  |  |  | ≥ 50% | 
3 | CC(N)[PH](=O)O (stereo not shown) [1-amino-ethylphosphinic acid] | no effect | no inhibitory effect | no effect |  |  | no inhibitory effect
4 | CCCCCCc1ccc(O)cc1O [4-hexylresorcinol] | cytotoxic or cytostatic | cytotoxic |  |  |  | 
5 | NC(=O)c1cccnc1 [niacinamide] | no effect | no inhibitory effect | no effect |  |  | no inhibitory effect
